Results on one compound are retold here after publication PMC4122355, “Inhibitor of the Tyrosine Phosphatase STEP Reverses Cognitive Deficits in a Mouse Model of Alzheimer's Disease” (PLoS Biology, 2014).

For one data set, the system named is Aβ and phospho-tau. The data set is described as follows: Aβ and phospho-tau levels in 12-mo-old 3xTg-AD mice. It is filed as in vivo, mouse. The conditions noted are these: 10 mg/kg i.p. The method, then: Time spent with either a novel or familiar object was recorded using ANY-maze software. Square-root transformation was used to meet the assumptions of normality and equal variance of the raw data. All histograms are presented as means ± s.e.m. Student's t test was applied to determine significance differences (*p<0.05; WT-Veh, n = 10; WT TC, n = 11; AD-Veh, n = 22; AD-TC, n = 19). […] CTFs and Aβ are indicated by arrowheads. Representative 7PA2-CM (Aβ-enriched conditioned medium) immunoprecipitation is shown on right panel. Data are presented as means ± s.e.m. […] Data are presented as means ± s.e.m. […] (TIF) Click here for additional data file.

For the next data set, the target named is T1, HePTP (Homo sapiens, UniProt P35236).
T1 construct: Full-length HePTP and PTP-SL proteins were purchased from Abnova; purchased Abnova (Taipei, Taiwan)
T1 sequence (P35236 1-360): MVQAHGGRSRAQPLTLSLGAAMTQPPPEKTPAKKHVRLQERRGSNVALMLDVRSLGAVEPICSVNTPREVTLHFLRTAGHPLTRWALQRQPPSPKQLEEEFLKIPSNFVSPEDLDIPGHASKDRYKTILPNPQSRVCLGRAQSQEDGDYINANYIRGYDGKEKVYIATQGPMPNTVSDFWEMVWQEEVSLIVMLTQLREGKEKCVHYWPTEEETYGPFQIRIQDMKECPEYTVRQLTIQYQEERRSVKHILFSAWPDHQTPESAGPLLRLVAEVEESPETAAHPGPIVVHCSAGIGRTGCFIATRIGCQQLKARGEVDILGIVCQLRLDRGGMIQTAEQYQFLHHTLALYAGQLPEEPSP
The experiment in a line: Selectivity pNPP assay, full-length PTPs: HePTP. It is filed as biochemical. The conditions noted are these: full-length PTP, 10 nM, 500 µM pNPP. An excerpt:
Constructs were transformed into BL21 (DE3) E. coli cells. Fusion proteins were purified on a glutathione sepharose column.

In data set [1] the test system is GluN2B Y1472, Pyk2 Y402, ERK1/2 Y204/187 in WT and STEP KO cortical neurons. The data set is described as follows: Tyr phosphorylation of STEP substrates in WT and STEP KO mouse cortical cultures. It is filed as cell-based. The conditions noted are these: 1 h. The method, then:
(§1) Primary cortical neurons were isolated from Sprague Dawley rat embryos (E18) (Charles River Laboratories, Wilmington, MA) as previously described. In some experiments, cortical neurons were made from WT and STEP KO mouse embryos (E18). Neurons were allowed to grow for 18–21 d in CO2 incubator before addition of compounds at indicated doses for 1 h. Immediately following treatments, neurons were lysed in RadioImmuno Precipitation Assay (RIPA) buffer supplied with protease inhibitor cocktail (Roche Applied Science, Indianapolis, IN) and phosphatase inhibitors (NaF and Na3VO4). All experiments were replicated four times with four independent batches of cultures.
(§2) Samples were prepared and resolved by SDS-PAGE, transferred to nitrocellulose membrane, and incubated with phospho-specific antibodies (anti-pY^204/187 ERK1/2, anti-pY^402 Pyk2, anti-pY^1472 GluN2B) or total protein antibodies (anti-ERK2, anti-Pyk2, and anti-NR2B) overnight at 4°C. Immunoreactivity was visualized using a Chemiluminescent substrate kit (Pierce Biotechnology, Rockford, IL) and detected using a G:BOX with the image program GeneSnap (Syngene, Cambridge, UK). All densitometric quantifications were performed using the Genetools program.

Data set [2] in a line: Stability in imidazole buffer by 19F NMR. It is filed as physicochemical. The conditions noted are these: 1 h. Here is the method: The tube was allowed to incubate at ambient temperature with shaking for 1 h. The mixture was diluted with 150 µL of DMSO-d6 and transferred to an NMR tube containing a capillary of trifluoroacetic acid as an external standard (−76.55 ppm). The stability of the compound in the buffer was confirmed by observing no differences in the sensitive ^19F-NMR spectra (Figure S4). As a control for compound modification, the experiment was repeated with the addition of 1 mM GSH in the incubation buffer.

In data set [3] the test system is GluN2B (Y1472), Pyk2 (Y402), ERK1/2 (Y204/187) in cortical neurons. The experiment in a line: Tyr phosphorylation of STEP substrates in cortical neuronal cultures (Western blot). Conditions: 1 µM dose, 1 h, relative to vehicle. It is filed as cell-based, rat. Here is the method: as §1, §2
In data set [4] the test system is 3xTg-AD and WT mice. The experiment in a line: Morris water maze (MWM), reference memory version. It is filed as in vivo, mouse. Here is the method:
The reference memory version of the MWM task was performed as described previously. A crossover design was not used in the MWM task, as the mice were randomly assigned to each treatment condition and can be exposed to the task only once. Briefly, animals were trained to swim in a 1.4 m diameter pool to find a submerged platform (14 cm in diameter) located 1 cm below the surface of water (24°C), rendered opaque by the addition of nontoxic white paint. Animals were pseudo-randomly started from a different position at each trial and used distal visual-spatial cues to find the hidden escape platform that remained in the center of the same quadrant throughout all training days. Training measures included escape latency to reach the platform, swim speed, and thigmotaxis. […] At 24 h after the acquisition phase, the platform was removed and a probe trial of 90 s was given to evaluate the number of entries in a circular zone (three times the platform diameter) positioned around the previous platform location (target zone) and in the opposite quadrants. To assess visual deficits and motivation to escape from water, the probe test was followed by a cued task (60 s; three trials per animal) during which the platform was visible. The visible platform was moved to different locations between each trial. After each trial, animals were immediately placed under a warming lamp to dry to prevent hypothermia. […] Behavioral data from training, probe, and cued trials were acquired and analyzed using the ANY-maze automated tracking system (Stoelting, IL, USA).

In another data set the target is PTP-SL (Homo sapiens, UniProt Q15256). The data set is described as follows: biochemical.
Sequence of PTP-SL (Q15256 22-657): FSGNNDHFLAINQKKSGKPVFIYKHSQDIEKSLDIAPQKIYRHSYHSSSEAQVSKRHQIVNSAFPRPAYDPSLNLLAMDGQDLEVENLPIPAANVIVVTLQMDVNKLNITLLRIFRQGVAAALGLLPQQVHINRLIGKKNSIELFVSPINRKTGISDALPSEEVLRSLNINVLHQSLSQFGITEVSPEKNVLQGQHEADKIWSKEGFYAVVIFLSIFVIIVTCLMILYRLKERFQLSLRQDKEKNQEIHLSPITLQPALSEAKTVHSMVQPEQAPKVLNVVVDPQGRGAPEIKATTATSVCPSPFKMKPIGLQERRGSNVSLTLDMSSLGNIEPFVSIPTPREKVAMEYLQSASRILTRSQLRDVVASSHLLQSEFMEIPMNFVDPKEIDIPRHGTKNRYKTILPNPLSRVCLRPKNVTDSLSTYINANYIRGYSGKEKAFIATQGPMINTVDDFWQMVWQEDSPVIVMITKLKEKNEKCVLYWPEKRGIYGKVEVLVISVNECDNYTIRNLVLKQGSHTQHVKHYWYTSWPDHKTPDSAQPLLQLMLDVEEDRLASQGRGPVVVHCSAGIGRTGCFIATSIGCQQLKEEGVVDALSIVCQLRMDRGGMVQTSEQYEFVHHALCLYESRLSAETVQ
Data set [5] concerns 3xTg-AD and WT mice. The data set is described as follows: Y-maze alternation task. Conditions: 10 mg/kg i.p. 3 h prior. The format is in vivo, mouse. The method, then:
The Y-maze apparatus consisted of three dark gray arms (42×4.8×20 cm). […] The total number of arm entries was recorded, as was the number of entries representing alternation behavior (i.e., sequential entry into all three arms). All four paws of the mouse had to enter an arm for it to count as an arm entry. Percentage spontaneous alternation = (number of alternations)/(total arm entries – 2). […] A total number of 20 WT and 11 AD mice were used in the Y-maze task.

Protocol for PTP-SL: Full-length HePTP and PTP-SL proteins were purchased from Abnova (Taipei, Taiwan). All proteins were dialyzed in 1,000-fold volume of buffer, which was repeated three times. […] After 10 min preincubation of enzyme and inhibitor at 27°C, 500 µM of pNPP was added and incubated for 30 min. Absorbance was taken at 405 nm using a Biotek plate reader.

As usually defined, the IC50 is the midpoint of a concentration-inhibition curve. Lower therefore signals inhibition by little substance. Take `Cl.Nc1cc(C(F)(F)F)cc2c1SSSSS2` [TC-2153, 8-(trifluoromethyl)-1,2,3,4,5-benzopentathiepin-6-amine hydrochloride]: the “Aβ or phospho-tau levels” value in the data set on Aβ and phospho-tau was “no significant changes in Aβ or phospho-tau levels”; in the data set on Aβ and phospho-tau (row) it was “did not affect the Aβ and tau brain pathology”. In addition, the figures for the concentration for half-maximal inhibition (IC50) against HePTP and at PTP-SL were 363.5 ± 1.2 nM and 220.6 ± 1.3 nM, respectively. Besides, in data set [1] (STEP KO cultures, TC-2153 0.1 and 1 µM, Na3VO4 1 mM), the “Tyr phosphorylation of STEP substrates in STEP KO cortical cultures” value is on record as “failed to increase the phosphorylation of STEP substrates”. For the same compound, in data set [1] (WT cultures, 0.1 and 1 µM), the “Tyr phosphorylation of STEP substrates in WT mouse cortical neurons” value was “an increase in the Tyr phosphorylation of STEP substrates”. Further, the “Stability with GSH (19F NMR)” value in data set [2] (1 mM GSH in pH 7.0 imidazole buffer) was “compound modification clearly observed”. Moreover, the “Stability in assay conditions (19F NMR)” value in data set [2] (pH 7.0 imidazole buffer) was “stable and did not degenerate in the assay conditions”. Besides, the “pERK1/2 (Y204/187), phospho-signal normalized to total protein and GAPDH” value in data set [3] was 2.39±0.18. The “pGluN2B (Y1472), phospho-signal normalized to total protein and GAPDH” value in data set [3] is reported as 2.07±0.15. Also, the “pPyk2 (Y402), phospho-signal normalized to total protein and GAPDH” value in data set [3] turned out to be 1.81±0.21. For the same compound, the “MWM probe trial, target zone” value in the data set with 3xTg-AD and WT mice [4] (3xTg-AD mice, 24 h after last acquisition day) was “spent as much time as WT mice in the target zone”. Besides, in the data set on 3xTg-AD and WT mice [4] (3xTg-AD mice, daily injection 3 h prior to training, days 5 and 6), the “MWM acquisition phase escape latency” value is “reversed memory deficits”. For the same compound, the “MWM cued trial escape latency, AD mice” value with 3xTg-AD and WT mice [4] (AD-TC, visible platform, AD-Veh 15.3±3.0) is 16.0 ± 2.3 s. For the same compound, the “MWM cued trial escape latency, WT mice” value in the data set on 3xTg-AD and WT mice [4] (WT-TC, visible platform, WT-Veh 15.1±1.7) is 15.6 ± 1.7 s. The “Y-maze arm entries (general motor activity)” value with 3xTg-AD and WT mice [5] was “no significant change in arm entries”. Besides, the “Y-maze percentage spontaneous alternation, WT mice” value in the data set with 3xTg-AD and WT mice [5] (WT mice, vehicle 74.98±2.19) amounted to 73.45±3.19.
